Structure (SMILES)	melting point
CSC(Nc1ccc(NC(=O)OC(C)(C)C)cc1)=C(C#N)C#N	190 °C
Oc1c(Br)cnc2ccccc12	286 to 287 °C
Nc1ccc(CCC(=O)Nc2ccc(C(=O)c3ccccc3)cc2)cc1N	156 to 157 °C
CCOP(=O)(COCCC(CO)On1cnc2c(N)ncnc21)OCC (stereo not drawn)	86 to 88 °C
ClCc1cn2cc(Br)ccc2n1	125 to 126 °C
O=C1c2ccccc2C(=O)N1CSc1ccncc1	133 to 134 °C
O=C(O)c1ccc2c(c1)Sc1ccc(F)cc1C=C2	273 to 275 °C
CC12CCC(C1)C1(C)Oc3ccc(C(=O)COc4ccc(C(=O)O)c(O)c4)cc3C21C (stereo not drawn)	186 to 188 °C
C#CCn1c(=O)sc2cc(F)c(-c3ccc(C(F)(F)F)n(C)c3=O)cc21	150 to 151 °C
CCOC(=O)c1ccc2n1Cc1ccccc1N1CCN(C)CC21 (stereo not drawn)	128 to 130 °C
OCc1ccc(-c2ccc(OC(F)(F)F)c(F)c2)cn1	51 to 53 °C
Cc1ccc2nc(C(=O)Nc3ccccn3)[nH]c2c1	230 °C
COC(=O)c1cc(O)ccc1N	154 to 155 °C
CCCCc1nc(S(=O)(=O)c2ccccc2)c(C(=O)O)n1Cc1ccc(-c2ccccc2C(=O)O)cc1	140 °C
CCOC(=O)c1ccc(NCCCCCCCc2ccccc2)cc1	65 to 67 °C
CCCCCCCCCCOc1cnc(-c2ccc(CCCCCC(C)OC(C)=O)cc2)nc1 (stereo not drawn)	72 to 73 °C
CCOC(=O)c1cn2c3c(c(F)c(F)c(F)c3c1=O)CCN2C	236 to 240 °C
O=C1OCc2cc(C(F)(F)F)ccc21	71 to 72 °C
CS(=O)(=O)c1ccc(/C=C/c2cc(/C=C/c3ccc4cc[nH]c4c3)n[nH]2)cc1	260 to 268 °C
CCc1cc2c(=O)c3cccc(C(=O)OCOC(=O)C(C)(C)C)c3n(Cc3ccc(-c4ccccc4-c4nnn[nH]4)cc3)c2s1	146 to 152 °C
CC(=O)On1cnc2c(Br)csc2c1=O	159 to 162 °C
COC(=O)C1=C(C(OC)OC)NC(C)=C(C(=O)OC(C)C)C1c1ccccc1[N+](=O)[O-] (stereo not drawn)	143 to 145 °C
Cc1cccc(C)c1-c1cc(O)c(SCc2ccccc2)c(=O)o1	140 to 143 °C
CC(=O)c1csc(-c2nc3n(c2-c2ccncc2)CCC3)c1	152 to 154 °C
COc1cc(C)c(C(=O)c2c(OC)ccc(C(F)(F)F)c2C)c(OC)c1OC	95 to 96 °C
C[C@@H]1C(=O)C[C@H]2C[C@@H]1OO[C@@]2(C)/C=C\c1ccc(Cl)cc1Cl	137 °C
COc1c(F)cc(-c2cncc(OC3SCC(OC(C)=O)C(OC(C)=O)C3OC(C)=O)c2)cc1F (stereo not drawn)	203 °C
Cc1ccc2c(c1)c1cc(-c3cc(F)cc(F)c3)c(=O)n(C)c1n2C	240 °C

Structure (SMILES)	melting point
COC(=O)Cc1ccc(OCCNC(=O)[C@@H]2Cc3ccccc3N2S(=O)(=O)c2ccc(OC(C)(C)C)cc2)cc1	45 to 48 °C
COc1ccc(Nc2ccc(Cl)cc2C(=O)O)cc1	188 to 189 °C
CO/C(=C\C=C\c1cc2ccccc2s1)C(=O)NC1CC(C)(C)N(C)C(C)(C)C1	240 °C
CC(C)(C)c1ccc(OCCOc2ccccc2N)c(N)c1	148 to 150 °C
NC(=O)c1cc2c(Oc3ccc(-n4ccnc4)cc3)cncc2s1	310 to 312 °C
CC(=O)c1cnn2ccccc12	96 to 97 °C
O=C(CCC#Cc1ccccn1)Nc1ccc(Cl)cc1	110 to 111 °C
CC(=O)OC1C(OC(=O)C=Cc2ccccc2)C=C(C)C(=O)CC1(C)C (stereo not drawn)	138 to 139 °C
O=C(Nc1ccc2cc(CN3CCCC3)cnc2c1)c1ccc(-c2ccccc2)nc1	208 to 210 °C
CCOc1ccc(-c2nc3n(c2-c2ccncc2)CCC3)cc1	133 to 135 °C
CCOC(=O)C1COc2c(C=O)cc(Cl)c(Cl)c2O1 (stereo not drawn)	110 to 113 °C
c1cncc(-c2nc3ncccc3[nH]2)c1	133 to 135 °C
Cn1ccc(-n2ccnc2S)n1	126 to 128 °C
COc1cc(Nc2ncnc3cc(OCCCc4ccncc4)c(OC)cc23)c(OC)cc1Cl	205 to 208 °C
COC1CN(c2ccc(N3C[C@H](CNC(C)=O)OC3=O)cc2F)C1	160 to 162 °C
CCOCc1nc2c(N)nc3ccc(N4CCOC4=O)cc3c2n1CC(C)(C)O	207 to 210 °C
CC(C)c1ccc(S(=O)(=O)Nc2nc(-c3cccc([N+](=O)[O-])c3)cs2)nc1	208 to 210 °C
CCNC(=S)OCCOc1ccc(Oc2ccc(F)cc2)cc1	73 to 75 °C
CN1CC=C(c2c[nH]c3ccc(N)cc23)C(F)C1 (stereo not drawn)	176 to 178 °C
Cc1c(C(=O)Nc2ccc(OC3CCN(Cc4ccccc4)CC3)c(C#N)c2)cnn1-c1ccc(Cl)cc1	194 °C
CC(Oc1ccc(O)cc1)C(=O)Nc1ccc(OC(F)(F)F)cc1 (stereo not drawn)	74.5 to 75 °C
CCC1(CCCCCN2CCN(c3ccccn3)CC2)C(=O)Nc2ccccc21 (stereo not drawn)	127 to 128 °C
CCOC(=O)CCCc1oc(=O)[nH]c1-c1ccc(Cl)s1	95 to 96 °C
Cc1cc(C)cc(CNc2c(NC(C)(C)C)c(=O)c2=O)c1	246 to 248 °C
Nc1ccc(C(=O)c2ccncc2)cc1	152 °C
O=C(O)CCCCOc1ccc2nc3[nH]c(=O)[nH]c3cc2c1	317 to 318 °C
NC(=O)CCCCCOc1ccc(C#Cc2ccc(C(=O)O)cc2)cc1C12CC3CC(CC(C3)C1)C2	269 to 270 °C

Next, values leading:

melting point	Structure (SMILES)
168 °C	O=C(Nc1cccc2c1C(=O)N(CCN1CCN(c3ccncc3)CC1)C2=O)c1ccc(Cl)s1
227 to 229 °C	O/N=C1\CCCc2c1c1ccccc1n2-c1ccc(O)cc1
48.1 °C	CCCCCC1CCc2cc(C(=O)Oc3ccc(CCCC)cc3)ccc2C1 (stereo not drawn)
144 to 145 °C	Cc1ncc([N+](=O)[O-])cc1C(=O)NCCO
110 to 111 °C	COC(=O)c1cccc(N)c1NCc1ccc(-c2ccccc2C#N)cc1
255 °C	COc1ccc(-n2ncc(-c3ccc(C=Cc4ccc(-c5nc6ccccc6o5)cc4)cc3)n2)cc1
104 to 107 °C	COc1cccc(-c2ccc(NC(=O)OC(C)(C)C)c([N+](=O)[O-])c2)c1
177 to 178 °C	Cc1nc2ccc(F)cc2[nH]1
198 to 202 °C	COc1ccccc1CNc1cc(C(N)=O)c([N+](=O)[O-])cc1[N+](=O)[O-]
152 to 154 °C	CC=NNC1=NCCc2ccccc21
109 to 111 °C	CC1(C)CON(Cc2ccc(N)cc2Br)C1=O
84 °C	C=CCSc1nc(O)ns1
201 to 202 °C	Nc1c(Cl)c(C(=O)O)nc(Cl)c1Br
85 to 88 °C	CC(C)(C)OC(=O)N1CCc2cccc([N+](=O)[O-])c2CC1
181 to 184 °C	Cc1ccc(S)c(C=O)c1
162 to 165 °C	Cc1ccc(O)c(C)c1N(C)C
180 to 181 °C	Cc1ccccc1CNC(=O)N1Cc2ccccc2-n2nc(C(C)(C)C)cc21
71 to 73 °C	Clc1ccc(C2=CCCC2)cc1
100 to 102 °C	C=C(C)C(=O)Oc1cccc(O)c1O
88 to 89 °C	CC(Oc1ccc(Br)cc1)(C(=O)O)c1ccccc1 (stereo not drawn)
68 to 70 °C	Cc1cc(Oc2ccc(C(F)(F)F)cc2[N+](=O)[O-])nn1C(=O)OC(C)(C)C
42 to 43 °C	CCCCCCCCOC(=O)C(=C1SCCS1)c1cccc(C(F)(F)F)c1
164 to 167 °C	CN(C)CCCOc1ccc2sc(C(=O)Nc3ccccc3N)cc2c1
190 to 191 °C	COC(=O)c1ccc(-c2nc3ccccc3o2)cc1

melting point	Structure (SMILES)
63 to 65 °C	CC(C)(C)OC(=O)N1CCC=C(Cc2cn(S(=O)(=O)c3ccccc3)c3ccc(F)cc23)C1
175 to 176 °C	O=[N+]([O-])c1ccc(OCc2cscn2)cc1
88 to 91 °C	CN(C(=O)OC(C)(C)C)c1sc(-c2cccnc2)nc1Br
235 to 240 °C	COc1cc2ccnc(N3CCN(c4ccc5c(c4)CCC(=O)N5)CC3)c2cc1OC
240 to 241 °C	COc1cc(CN/C=C2\C(=O)NC(=O)c3ccc(-c4ccc(Cl)cc4)cc32)cc(O)c1OC
123 to 124 °C	O=C(N[C@@H]1C[C@H]1c1ccccc1)c1ccc2cnccc2n1 (relative stereo)
66 to 67 °C	CCOc1cc([C@@H]2CC=CC[C@H]2[N+](=O)[O-])ccc1OC (racemic)
130 to 136 °C	Nc1nc2c(s1)CCN(CC=Cc1ccoc1)CC2
268 to 270 °C	CCC(=O)Nc1ccc(C2=NNC(=O)C3CC23)cc1 (stereo not drawn)
133 to 134 °C	CC=CCn1c(C)c(C)c2cnnc(OCc3ccc(Cl)cc3Cl)c21
65 to 66 °C	CCCCCCCCCC(=O)Nc1ccccc1
176 to 178 °C	CC(C)(C)c1cc(NC(=O)Nc2ccc(-c3c(C(N)=O)[nH]c4ccccc34)cc2)no1
215 to 217 °C	O=c1cc2c(nn1-c1ccc(Cl)cc1)-c1cc(Cl)ccc1SCC2
111 to 113 °C	CC(=O)C(=NNc1ccccc1)Sc1ccc(Cl)cc1
124 to 126 °C	Cc1nc2cc(Oc3ncccc3C(=O)NCc3ccc(C(C)(C)O)cc3)ccc2s1
251 to 253 °C	NC(=O)c1c(-c2cccc(F)c2)c(Cl)n2c1CN(C(=O)N[C@H]1CC[C@H](O)CC1)CC2
168 to 170 °C	C=CC(c1ccc(F)cc1)c1c(C)c(NC=O)c(C)c(C)c1O (stereo not drawn)
171 °C	CC(C)(C)OC(=O)NCc1nc(C(=O)ON2C(=O)CCC2=O)cs1
147 to 148 °C	CCOc1ccc(C(=O)CBr)cc1C(=O)OC
110 to 112 °C	COc1ccccc1OCC1SCCN1C(=S)CC(=O)c1cc(OC)c(OC)c(OC)c1 (stereo not drawn)
> 106 °C	CCCCc1nn(Cc2ccccc2C(=O)O)c(=O)n1Cc1ccc(-c2ccccc2-c2nnn[nH]2)cc1
67 to 71 °C	CCCC[C@H](NC(=O)[C@H](CCC(=O)O)NC(=O)OCc1ccccc1)C(=O)CSCc1ccco1
121 to 122 °C	CCC(CC)C1CC(=O)C(C(=O)NS(=O)(=O)c2ccc(Cl)cc2)C(=O)C1 (stereo not drawn)
83.5 to 84 °C	O=CC1=C(Cl)c2cccc(Cl)c2CC1

From a melting point compilation (Tetko et al.; mined from patent text by program, amines drawn as free bases though some values may be those of a salt)
